Bounds are passed on as bounds.

For one assay, the system named is human cord blood-derived CD34^+ cells. The assay can be described thus: Expansion of CD34^+ cells from human cord blood-derived CD34^+ cells (7-day liquid culture with SCF, flow cytometry). The format is cell-based. The following applies: 168 h, 0.3 μg/mL compound, based on the number of CD34^+ cells in the absence of compound, 100 ng/mL SCF, 7 days, read-out: Expansion efficiency. How it is done:
Commercially available human cord blood-derived CD34^+ cells (Cambrex Bio Science Walkersville) were plated on a 12-well plate (Corning) (from 5000 to 10000 cells/1 mL/well). As the culture medium, StemSpan SFEM (Stemcell Technologies) containing 100 ng/mL SCF (R&D Systems) was used, and Compounds Nos. 1 to 16 dissolved in dimethyl sulfoxide were added in an amount of 0.1% (v/v) to a final concentration of 0.3 or 1 μg/mL.
After the cells were incubated in liquid culture at 37° C. for 7 days in a CO2 incubator (in an atmosphere containing 5 vol % CO2), the total number of cells was counted by trypan blue assay (Invitrogen) or Flow-Count™ fluorosphere assay (Beckman Coulter). The number of CD34^+ cells was calculated as follows. After the incubation, the cells in the liquid culture was stained with a CD34 antibody (PE, Becton, Dickinson and Company). The stained cells were analyzed with a flow cytometer (Beckman Coulter) to determined the proportion of CD34^+ cells, which was multiplied by the total number of cells to calculate the number of CD34^+ cells.
The expansion efficiencies in the presence of 0.3 μg/mL or 1 μg/mL of compounds based on the number of CD34^+ cells in the absence of them are shown in Table 3 on a scale of A for expansion efficiencies of 3 or greater, B for expansion efficiencies of at least 2 and less than 3, and C for expansion efficiencies of at least 1.5 and less than 2.
As to `C/C(=N\NC(=S)N1CCC(C(=O)NCc2ccncc2)CC1)c1csc(-c2ccc(Br)cc2)c1O` [compound 14], the fold induction at 0.3 µg/mL lay within 1.5 to 2.

Regarding `C/C(=N\NC(=S)N1CCC(C(=O)NCC(=O)O)CC1)c1csc(-c2ccc(Br)cc2)c1O` [compound 16], the fold induction at 0.3 µg/mL is 2 to 3.

Still in this assay, the particulars now being: 168 h, 1 μg/mL compound, based on the number of CD34^+ cells in the absence of compound, 100 ng/mL SCF, 7 days, read-out: Expansion efficiency.
For `COC(=O)C1CCN(C(=S)N/N=C(\C)c2nn(C)c(-c3ccc(Cl)c(Cl)c3)c2O)CC1` [compound 4], the fold induction at 1 µg/mL lay within 1.5 to 2.

As for `C/C(=N\NC(=S)N1CCC(C(=O)O)CC1)c1csc(-c2ccc(C)c(C)c2)c1O` [compound 10], the fold induction at 1 µg/mL was ≥ 3.

As for `C/C(=N\NC(=S)N1CCC(C(=O)O)CC1)c1csc(-c2ccc(C(C)(C)C)cc2)c1O` [compound 7], the fold induction at 1 µg/mL is ≥ 3.

Turning to `C/C(=N\NC(=S)N1CCC(C(=O)O)CC1)c1csc(-c2ccc(OC(F)(F)F)cc2)c1O` [compound 11], the fold induction at 1 µg/mL was ≥ 3.

For `C/C(=N\NC(=S)N1CCC(C(=O)O)CC1)c1csc(-c2ccc(C(F)(F)F)cc2)c1O` [compound 2], the fold induction at 1 µg/mL lay within 2 to 3.

For the molecule `C/C(=N\NC(=S)N1CCC(C(=O)O)CC1)c1nn(C)c(-c2ccc(C(F)(F)F)cc2)c1O` [compound 3], the fold induction at 1 µg/mL lay within 1.5 to 2.

For the molecule `C/C(=N\NC(=S)N1CCC(C(=O)O)CC1)c1csc(-c2ccc(Br)cc2)c1O` [compound 8], the fold induction at 1 µg/mL was ≥ 3.

As for `COC(=O)C1CCN(C(=S)N/N=C(\C)c2csc(-c3ccc(OC)cc3)c2O)CC1` [compound 5], the fold induction at 1 µg/mL fell in the range of 1.5 to 2.

Take `CCCNC(=O)C1CCN(C(=S)N/N=C(\C)c2nn(C)c(-c3ccc(C(F)(F)F)cc3)c2O)CC1` [compound 9]: the fold induction at 1 µg/mL fell in the range of 2 to 3.

`C/C(=N\NC(=S)N1CCC(C(=O)O)CC1)c1csc(-c2ccc(Cl)cc2)c1O` [compound 13]: the fold induction at 1 µg/mL is ≥ 3.

With `C/C(=N\NC(=S)N1CCC(C(=O)O)CC1)c1csc(-c2ccc(Cl)c(Cl)c2)c1O` [compound 1], the fold induction at 1 µg/mL fell in the range of 2 to 3.

`C/C(=N\NC(=S)N1CCC(C(=O)O)CC1)c1csc(-c2cccc(Cl)c2)c1O` [compound 12]: the fold induction at 1 µg/mL was in the range of 2 to 3.

`COc1ccc(-c2scc(/C(C)=N/NC(=S)N3CCC(C(=O)O)CC3)c2O)cc1` [compound 6]: the fold induction at 1 µg/mL was ≥ 3.
